Laboratory results: PubChem BioAssay AID588616 (The Scripps Research Institute Molecular Screening Center, 2011)

Tests used:
[1] = system: DLD-1 cells, phospho-p38 western blot, 24 h; experiment: phosphorylated p38 MAPK abundance shift – DLD1 cells, chemiluminescent western blot, powder samples, counter-screen for KLF5 inhibitor project, late-stage follow-up (AID 588616); settings: measured here: phospho-p38 band fold change vs DMSO; at 10 µM; stronger effect = lower value
[2] = biological target: Mitogen-activated protein kinase 14 (Homo sapiens) (UniProt Q16539); experiment: as above; settings: DLD-1 cells, phospho-p38 western blot, 24 h; at 10 µM; stronger effect = higher value
Mitogen-activated protein kinase 14 (Homo sapiens), sequence (Q16539 whole entry, looked up): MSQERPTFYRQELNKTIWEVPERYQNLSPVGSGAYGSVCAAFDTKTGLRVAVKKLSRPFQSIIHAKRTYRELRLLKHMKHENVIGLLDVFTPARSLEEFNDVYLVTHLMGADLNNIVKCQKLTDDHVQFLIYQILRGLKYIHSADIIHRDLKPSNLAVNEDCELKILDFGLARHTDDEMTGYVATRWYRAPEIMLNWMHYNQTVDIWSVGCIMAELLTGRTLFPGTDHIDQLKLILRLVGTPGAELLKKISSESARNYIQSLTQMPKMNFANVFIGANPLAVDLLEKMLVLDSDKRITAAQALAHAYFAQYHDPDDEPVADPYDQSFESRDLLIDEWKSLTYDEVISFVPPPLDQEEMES

inhibition [2] | Compound | fold change [1]
-144% | CN(C(=O)CNC(=O)/C=C/c1cccc(Cl)c1)C1CCS(=O)(=O)CC1 | 2.44
-114% | CN(C(=O)CNC(=O)/C=C/c1cccc(Cl)c1)C1CCS(=O)(=O)C1 (stereo unspecified) | 2.14
-197% | CN(C(=O)COC(=O)/C=C/c1cccc([N+](=O)[O-])c1)C1CCS(=O)(=O)C1 (stereo unspecified) | 2.97
